Values of other authors as cited in patent US6472362B1, “Detergent compositions in tablet form” (Unilever Home & Personal Care USA division of Conopco, Inc., priority 1997, dated 2002).
Read-outs that look alike come from different tables or passages of the source.

[1] = other common materials, at 200° C. (so in the source)

Structure (SMILES)	solubility in water (at 20° C.)	Water Solubility (g/100 g) (highly water-soluble materials, saturated solution in 100 grams of water at 20° C.)	Water Solubility (g/100 g) [1] [g/100 g]
NC(N)=O [Urea]	exceeding 100 gms per 100 ml water	>100	
O=BO[O-].[Na+] [Sodium perborate anhydrous]			3.7
O=P(O)(O)OP(=O)(O)OP(=O)(O)O [Sodium tripolyphosphate anhydrous]			15
